Legend:
[1] = system: dopaminergic neurons (TH+ neurons) in primary cultures of ventral mesencephalon; assay: Neuroprotection: counting of remaining TH+ neurons in primary cultures of ventral mesencephalon (spontaneous death of dopaminergic neurons); assay type: cell-based; conditions: Product 10 nM, 8 days culture, rat embryo ventral mesencephalon; untreated control = 100
Experimental: (§1) Dissection. Dissection consists of extracting embryos from the uterus of a rat after fifteen days of gestation. The brain of each embryo is then dissected under magnifying binoculars in order to extract the ventral mesencephalus.
(§2) Seeding. Mesencephalons are grouped in a flask containing 2 mL of L15 medium and then mechanically dissociated (30 repeat operations), 5 mL of L15 medium are added. The suspension is allowed to stand for 8 minutes. The 5 mL float is then recovered in a new flask and the cells are dissociated again (30 repeat operations). 5 mL of L15 is added again and the suspension is left to stand for 8 minutes. The 5 mL float is added to the previous float. The cells thus extracted are then centrifuged for 5 minutes at 1000 rpm^−1. The cell sediment is dissolved in a Neurobasal medium supplemented with 1% of B27, 1% of glutamine and 1% of a mixture of penicillin and streptomycin. The cells are then seeded at an appropriate dilution (0.6 embryos per well in 24-well plates and 0.4 per well in 48-well plates). The cultures are incubated at 37° C. in a wet atmosphere enriched with 5% CO2 in 24-well or 48-well plates.
(§3) Treatment. After 24 hours, two-thirds of the medium in each well is replaced by a new medium enriched with the product to be tested at the appropriate dilution. The medium is replaced in the same way after 4 days of culture.
(§4) Immunohistochemistry. After 8 days culture, the cells are fixed by a solution of 4% formaldehyde and then washed three times with PBS. The cells are then submitted to anti-tyrosine hydroxylase (TH) immunohistochemistry, developed by a secondary antibody coupled to a fluorophore emitting in the red (Cy3).
(§5) Analyses. Neuroprotection is evaluated by counting positive TH neurons with 10 fields per well directly under an inverted fluorescence microscope, reported as a percentage of the untreated control. Experiments are done on three wells per condition. Three independent experiments are done under these conditions. The total neuritic length per cell is calculated using Explora Nova's Neurite Outgrowth software on 60 to 100 neurons photographed independently per condition.
(§6) Primary cultures of ventral mesencephalon of rat embryos after 15.5 days of gestation under conditions causing spontaneous death of dopaminergic neurons, are maintained in the presence or absence of the compounds to be tested for 8 days. After fixing, the cultures are submitted to immunocytochemistry directed against tyrosine hydroxylase, a specific marker of dopaminergic neurons.
The neuroprotective potential of each compound is then estimated by counting the number of remaining neurons (TH^+ neurons) under a fluorescence microscope. The results for the different treatments are expressed as a percentage of the number of neurons remaining relative to untreated cultures (Control).
(§7) All experiments were done by comparison with a positive control, dibutyryl-AMP cyclic (db-AMPc) (Mourlevat S. et al. Mol. Pharmacol. 2003, 64 (3), 578-586).

[2] = system: dopaminergic neurons (TH+ neurons) in primary cultures of ventral mesencephalon; assay: Neuritogenesis: total neuritic length per dopaminergic neuron in primary cultures of ventral mesencephalon; assay type: cell-based; conditions: Product 10 nM, 8 days culture, rat embryo ventral mesencephalon; untreated control = 100
Experimental: as §1, §2, §3, §4, §5, §6
Neuritogenesis is quantified by measuring the total neuritic length per dopaminergic neuron (neuritic length/TH^+ neuron) using an image analyser on a minimum of sixty photographed neurons per condition (10-30% of all dopaminergic neurons).
as §7

[3] = Test with ABTS (anti-oxidant capacity, hydroxyl radicals generated by Fenton's reaction); assay type: biochemical; conditions: 30 minutes at ambient temperature, range 10 nM to 1 mM, read-out: IC50 ± SEM (concentration at which 50% of hydroxyl radicals have been reduced) (converted)
Excerpt: ABTS or 2,2′-azino-bis-(3-ethylbenzthiazoline-6-sulfonic) acid is a coloured indicator of the presence of hydroxyl radicals in solution. The attack of a hydroxyl radical on ABTS generates the formation of an ATBS^+. cation radical (Equation 1). This coloured entity makes the absorbance (Abs) of the solution equal to 450 nm. ABTS+HO. ? ABTS^+. +HO^− Equation 1
During the test, hydroxyl radicals are generated by Fenton's reaction in the presence of iron and hydrogen peroxide (Equation 2) H2O2+Fe^2+ ? HO. +HO^−+Fe^3+ Equation 2
When a radical trap or antioxidant is present in solution, competition with ABTS is set up for reduction of hydroxyl radicals, which reduces the absorbance (Abs) at 450 nm.
The percentage of hydroxyl radicals converted into hydroxyl ions (% conversion) by the compound of interest may be calculated using Formula 1: […]
The anti-oxidant capacity of a compound may then be expressed in the form of IC50 that reflects the concentration at which 50% of hydroxyl radicals have been reduced by the tested compound.
Thus, the compounds to be tested and Trolox® were solubilised in ethanol so as to obtain solutions at 1 mM. We used cascade dilutions to obtain a concentration range varying from 1 mM to 10 nM. 90 μL of a 1:1 water-ethanol mixture was then added onto an ELISA 96-well plate, followed by 15 μL of an aqueous solution of ABTS at 1 mM, 15 μL of an aqueous solution of Fe2SO4 at 0.5 mM, 15 μL of each compound to be tested at different concentrations, and then 15 μl of an aqueous solution of hydrogen peroxide at 100 mM. The mixtures thus obtained were stirred at ambient temperature sheltered from air for 30 minutes, and the value of the absorbance at […] was then measured. The capacity of each compound to reduce hydroxyl radicals is determined by the reduction in absorbance at 450 nm, the control solution being composed of pure ethanol. Therefore, the ABTS test was made in comparison with Trolox®. The same ranges from 10 nm to 1 mM of indoles 1a, 1c, 1g, 1i, 2a, 4c, 2g, 2h and 2i were tested.

[4] = system: reactive oxygen species (ROS) in neurones of ventral mesencephalon cultures; assay: Cellular test with dihydrorhodamine 123 (DHR-123); assay type: cell-based, rat; conditions: compounds 10 nM for eight days, 50 μM DHR-123 30 minutes; control = 100; Trolox at 10 μM per FIG. 1
Experimental: Dihydrorhodamine 123 or DHR123 is used as an indicator of reactive oxygen species (ROS). It is uncharged and not fluorescent and passes passively through the cellular membrane before being oxidised in contact with free radicals, into rhodamine 123 emitting green fluorescence.
The quantity of intracellular ROS is reduced when the cells are treated by an anti-oxidant. This reduction results in a quantifiable decay in emitted fluorescence in the presence of DHR123.
In order to conclude the role of the anti-oxidant capacity of compounds according to the invention in the observed neuroprotectrive activity, the cultures were placed strictly under the same conditions as for the neuroprotection/neuritogenesis test. Thus, the cultures were kept for eight days in the presence of a concentration of 10 nM of each of the tested tryptaminic derivatives. On the 8th day in vitro (DIV 8), 50 μM of DHR-123 (Sigma) was added and the cells were incubated for 30 minutes at 37° C. They were then washed three times, treated once again by compounds according to the invention and placed in a medium without any phenol red. Living fluorescent neurones that were immediately photographed can be observed, the fluorescence density per neurone being quantified under an inverted fluorescence microscope by an image analysis software.

Row | Compound | TH+ neurons, % relative to control ± SEM [1] [%] | Neuritic length/TH+ neuron, % relative to control ± SEM [2] [%] | IC50 [3] [µM] | IF/neurone (%) (fluorescence intensity per neurone) [4]
1 | OCCCCCCCCCCCCCCCNCCc1c[nH]c2ccccc12 [Compound 2i, N-(2-(1H-indol-3-yl)ethyl)-15-hydroxypentadecanamine] | 129.4 ± 5.0 | 160.8 ± 13.8 | 730 ± 10 | 44.0 ± 3.6
2 | Cc1c(C)c2c(c(C)c1O)CCC(C)(C(=O)O)O2 (stereo not shown) [Trolox ®, reference compound] |  |  | 550 ± 20 | 44.0 ± 2.8
3 | CCCCCCCCCCCCCCCCCCCCNCCc1c[nH]c2ccccc12 [Compound 2f] | 128.9 ± 3.4 | 132.6 ± 6.2 |  | 
4 | CCCCCCCCCCCCCCCC(=O)NCCc1c[nH]c2ccccc12 [Compound 1c, N-(2-(1H-indol-3-yl)ethyl)hexadecanamide] | 121.3 ± 3.2 | 168.6 ± 11.5 |  | 55.9 ± 3.0
5 | O=C(CCCCCCCCCCCCCCO)NCCc1c[nH]c2ccccc12 [Compound 1i, N-(2-(1H-indol-3-yl)ethyl)-15-hydroxypentadecanamide] |  |  |  | 56.5 ± 2.7
6 | CCCCCCCCCCCCCCCCCCNCCc1c[nH]c2ccccc12 [Compound 2e, N-(2-(1H-indol-3-yl)ethyl)octadecan-1-amine] | 129.9 ± 3.5 | 157.3 ± 10.3 |  | 
7 | CCCCCCCCCCCCCCCCCCCC(=O)NCCc1c[nH]c2ccccc12 [Compound 1f, N-(2-(1H-indol-3-yl)ethyl)icosanamide] | 121.8 ± 2.0 | 147.4 ± 7.0 |  | 
8 | CCCCCCCCCCCCCNCCc1c[nH]c2ccccc12 [Compound 2a, N-(2-(1H-indol-3-yl)ethyl)tridecan-1-amine] |  |  | 810 ± 140 | 
9 | CCCC(=O)Nc1ncnc2c1ncn2[C@@H]1O[C@@H]2COP(=O)(O)O[C@H]2[C@H]1OC(=O)CCC [db-AMPc, dibutyryl-AMP cyclic, reference compound] | 149.9 ± 3.6 | 333.1 ± 8.7 |  | 
10 | CCCCCCCCCCCCCCCCCCCCCCCNCCc1c[nH]c2ccccc12 [Compound 2g, N-(2-(1 H-indol-3-yl)ethyl)tricosan-1-amine] | 129.6 ± 3.5 | 141.2 ± 5.0 | 670 | 
